pEC50: −log10 of the molar value.
Assays:
[1] = (§1) Induction of calcium mobilization in sea urchin egg by fluorometry; format: functional, Hemicentrotus pulcherrimus
[2] = tested on: Hemicentrotus pulcherrimus; assay: as §1; format: functional

For `Nc1c2ncn3c2nc[n+]1[C@@H]1C[C@H](COP(=O)([O-])OP(=O)(O)OC[C@H]2O[C@@H]3[C@H](O)[C@@H]2O)[C@@H](O)[C@H]1O`, the pEC50 [1] was 7.27.
With `Nc1c2ncn3c2nc[n+]1[C@@H]1O[C@H](COP(=O)([O-])OP(=O)(O)OC[C@H]2O[C@@H]3[C@H](O)[C@@H]2O)[C@@H](O)[C@H]1O` the Activity [2] was “Dose-dependent effect” and the pEC50 [1] was 6.67.
Work on `[N-]=[N+]=NCC[C@]12COP(=O)(O)OP(=O)([O-])OC[C@H]3O[C@H]([C@H](O)[C@@H]3O)n3cnc4c(N)[n+](cnc43)[C@H](C1)[C@H](O)[C@@H]2O` yielded a pEC50 [1] of 7.62.

— ChEMBL document CHEMBL4425141, “Design, Synthesis, and Identification of 4″α-Azidoethyl-cyclic ADP-Carbocyclic-ribose as a Highly Potent Analogue of Cyclic ADP-Ribose, a Ca(2+)-Mobilizing Second Messenger” (J Med Chem, 2016)
